Source: patent US20190017067A1, “[…] PLANTS HAVING MODIFIED 5-ENOLPYRUVYLSHIKIMATE-3-PHOSPHATE SYNTHASE GENE REGULATION” (Regents of the University of Minnesota, priority 2016, published 2019)
Entries after “also recorded” stand apart in the source; their conditions may differ.

Experiments:
Type in all cases: in vivo, cassava (Manihot esculenta)
[1] = system: WT non-transgenic cassava plant (susceptible control); assay: Greenhouse glyphosate challenge, phenotype; conditions: 50 mg active ingredient per plant, 21 days after application (FIG. 7)
Description: (§1) Plants transgenic for 2×35S and native EPSPS promoter expression cassettes were established in the greenhouse following procedures described elsewhere (Taylor et al., 2012 Tropical Plant Biology, 5: 127-139; and Chauhan et al., 2015 Plant Cell Tissue and Organ Culture 121: 591-603). Glyphosate 5.4 was prepared in a solution containing Surface surfactant and applied to leaves of 4-5 week old plants. Glyphosate was applied at a rate of 50 mg active ingredient per plant in a dropwise manner to the youngest 1-2 fully expanded leaves. Plants were grown on the greenhouse bench under conditions described elsewhere (Taylor et al., 2012 Tropical Plant Biology, 5: 127-139; and Chauhan et al., 2015 Plant Cell Tissue and Organ Culture 121: 591-603). Three times per week plants were scored visually on a 1-7 scale for damaged caused by the glyphosate application, where 1=no damage and 7=death.

[2] = system: cassava plants transgenic for H014 (double 35S promoter driving the TIPI EPSPS sequence); assay: Greenhouse glyphosate challenge, visual damage score; conditions: 50 mg active ingredient per plant applied dropwise to leaves of 4-5 week old plants, scored three times weekly, 1=no damage, 7=plant death
Description: as §1

[3] = system: cassava plants transgenic for H009 (EPSPS promoter driving the GAAT (G101A/A192T) EPSPS sequence); assay: as above; conditions: 50 mg active ingredient per plant applied dropwise to leaves of 4-5 week old plants, scored three times weekly, 1=no damage, 7=plant death
Description: as §1

[4] = system: cassava plants transgenic for H010 (double 35S promoter driving the GAAT EPSPS sequence); assay: as above; conditions: 50 mg active ingredient per plant applied dropwise to leaves of 4-5 week old plants, scored three times weekly, 1=no damage, 7=plant death
Description: as §1

[5] = system: cassava plants transgenic for H013 (EPSPS promoter driving the TIPI (T102I/P106I) EPSPS sequence); assay: as above; conditions: 50 mg active ingredient per plant applied dropwise to leaves of 4-5 week old plants, scored three times weekly, 1=no damage, 7=plant death
Description: as §1

[6] = system: shoots of transgenic events expressing high levels of the T102I/P106A (TIPA) enzyme; assay: In vitro rooting test on glyphosate-containing media; conditions: media containing 0.05 mM glyphosate; compared to events expressing the gene variant at lower levels; p=0.00
Source text: Gene models are shown in FIG. 2, and indicated as follows: H001, WT EPSPS driven by the TME7 EPSPS promoter; H002, T102I/P106A EPSPS driven by the TME7 EPSPS promoter; H003, WT EPSPS driven by the 2×35s promoter; H004, T102I/P106A EPSPS driven by the 2×35s promoter.
(§2) Plantlets were regenerated from five independent transformation events with each gene model vector. Apical stem cuttings approximately 1.5 cm in length were excised from in vitro shoot cultures of transgenic plant lines and cultured on Murashige and Skoog basal media supplemented with 0.05 mM glyphosate. A total of five Petri dishes were established per transgenic event with three plantlets cultured in each dish.
(§3) Plants were monitored for a period of three weeks. The number of roots formed, length of roots, shoot vigor, and overall plant health were recorded at weekly intervals.

[7] = system: cassava plants edited with the H056 vector (double 35s promoter driving the TIPA enzyme); assay: Greenhouse glyphosate challenge of gene-edited plants; conditions: H056 edited event; 50 mg active ingredient per plant; assay as for FIG. 6; compared with H004 event
Description: as §1
Vectors containing gene editing reagents described in Example 8 were introduced into cassava callus via Agrobacterium transformation (for example, SEQ ID NOs: 11-14). The vectors were designed to repair the EPSPS promoter excision event either by HR or NHEJ from a standard T-DNA (H055; SEQ ID NO: 11), by HR only from a standard T-DNA (H056; SEQ ID NO: 12), or by HR only from a geminivirus replicon (H060; SEQ ID NO: 14). […]

[8] = system: cassava plants transgenic for H063 (RB1 promoter driving the TIPA EPSPS sequence); assay: Greenhouse glyphosate challenge, visual damage score; conditions: two independent lines, assay as for FIG. 6 (50 mg active ingredient per plant; 1=no damage, 7=plant death)
Description: as §1
(§4) To test the suitability of the two best promoter candidates for driving EPSPS expression, the RB1 and DFP promoters were used to drive expression of TIPA gene models (as shown in FIG. 12) transformed into cassava as described for the other gene models in Example 2. Independent lines were challenged with glyphosate as described for the other gene models in Example 6.

[9] = system: cassava plants transgenic for H064 (DFP promoter driving the TIPA EPSPS sequence); assay: as above; conditions: four independent lines, assay as for FIG. 6 (50 mg active ingredient per plant; 1=no damage, 7=plant death)
Description: as §1, §4

[10] = system: non-transgenic cassava stem cuttings; assay: In vitro rooting test on glyphosate-containing media; conditions: glyphosate added to the medium at 0.05 mM
Description: Experiments were conducted to access the effects of glyphosate on in vitro rooting by culturing non transgenic shoots on media containing different concentrations of glyphosate ranging from 0.001 mM to 1.0 mM.
as §2, §3

SMILES: O=C(O)CNCP(=O)(O)O [glyphosate]
- phenotype after herbicide challenge [1]: complete killing
- average damage to the shoots, scale of 1-7 [2]: 1-3.5
- average damage to the shoots, scale of 1-7 [3]: 4-6.5
- average damage to the shoots, scale of 1-7 [4]: 3-4
- average damage to the shoots, scale of 1-7 [5]: 4-5.5
- number and length of roots formed [6]: more and longer roots
- glyphosate tolerance of edited plants (damage over time) [7]: equivalent to the best H004 event recovered; also recorded: equivalent to performance of the best H004
- average damage to the shoots, scale of 1-7 [8]: 3-4
- average damage to the shoots, scale of 1-7 [9]: around 4
- effect on in vitro rooting and shoots [10]: Inhibited root formation and shoot death
